According to ChEMBL document CHEMBL3045586, “Synthesis and antimicrobial activity of some new 4-triazolylmethoxy-2H-chromen-2-one derivatives” (2012):
In brackets after ≈: the same amount, converted by molar mass.

Tests used:
Aspergillus niger [1] = experiment: Antifungal activity against Aspergillus niger MTCC 282 at […] to […] ug/ml after 28 to 30 hr by cup-plate method; type: functional
Escherichia coli [2] = experiment: Antibacterial activity against Escherichia coli MTCC 443 after 16 to 18 hr by serial dilution method; type: functional
Bacillus subtilis [3] = type: functional, MTCC 441
Staphylococcus aureus [4] = experiment: Bactericidal activity against Staphylococcus aureus MTCC 096 after 3 days; type: functional; conditions: MTCC 096, 72 h
Aspergillus flavus [5] = experiment: Antifungal activity against Aspergillus flavus MTCC 277 after 28 to 30 hr by serial dilution method; type: functional
Aspergillus niger [6] = experiment: Antifungal activity against Aspergillus niger MTCC 282 after 28 to 30 hr by serial dilution method; type: functional
Aspergillus fumigatus [7] = experiment: Antifungal activity against Aspergillus fumigatus MTCC 343 at […] to […] ug/ml after 28 to 30 hr by cup-plate method; type: functional
Klebsiella pneumoniae [8] = experiment: Bactericidal activity against Klebsiella pneumoniae MTCC 432 after 3 days; type: functional; conditions: MTCC 432, 72 h
[9] = tested on: Staphylococcus epidermidis; type: functional, MTCC 435
Staphylococcus aureus [10] = type: functional, MTCC 096
Aspergillus fumigatus [11] = experiment: Antifungal activity against Aspergillus fumigatus MTCC 343 after 28 to 30 hr by serial dilution method; type: functional
Staphylococcus aureus [12] = experiment: Antibacterial activity against Staphylococcus aureus MTCC 096 after 16 to 18 hr by serial dilution method; type: functional
Pseudomonas aeruginosa [13] = experiment: Antibacterial activity against Pseudomonas aeruginosa MTCC 424 after 16 to 18 hr by serial dilution method; type: functional
Escherichia coli [14] = experiment: Bactericidal against Escherichia coli MTCC 443 after 3 days; type: functional; conditions: MTCC 443, 72 h
Klebsiella pneumoniae [15] = type: functional, MTCC 432
Salmonella typhi [16] = experiment: Antibacterial activity against Salmonella enterica subsp. enterica serovar Typhi MTCC 733 after 16 to 18 hr by serial dilution method; type: functional
Candida albicans [17] = type: functional, MTCC 227
Candida albicans [18] = experiment: Fungicidal activity against Candida albicans MTCC 227 after 3 days; type: functional; conditions: MTCC 227, 72 h
Escherichia coli [19] = type: functional, MTCC 443
Candida albicans [20] = experiment: Antifungal activity against Candida albicans MTCC 227 after 28 to 30 hr by serial dilution method; type: functional
Klebsiella pneumoniae [21] = experiment: Antibacterial activity against Klebsiella pneumoniae MTCC 432 after 16 to 18 hr by serial dilution method; type: functional
Aspergillus flavus [22] = experiment: Antifungal activity against Aspergillus flavus MTCC 277 at […] to […] ug/ml after 28 to 30 hr by cup-plate method; type: functional
Aspergillus niger [23] = experiment: Fungicidal activity against Aspergillus niger MTCC 282 after 3 days; type: functional; conditions: MTCC 282, 72 h
[24] = tested on: Staphylococcus epidermidis; experiment: Antibacterial activity against Staphylococcus epidermidis MTCC 435 after 16 to 18 hr by serial dilution method; type: functional
Salmonella typhi [25] = experiment: Antibacterial activity against Salmonella enterica subsp. enterica serovar Typhi MTCC 733 at […] to […] ug/ml after 16 to 18 hr by cup-plate method; type: functional
Pseudomonas aeruginosa [26] = type: functional, MTCC 424
Bacillus subtilis [27] = experiment: Antibacterial activity against Bacillus subtilis MTCC 441 after 16 to 18 hr by serial dilution method; type: functional

| SMILES | inhibition zone (IZ) (Aspergillus niger [1]) [mm] | MIC (Escherichia coli [2]) [µg/mL] | inhibition zone (IZ) (Bacillus subtilis [3]) [mm] | MIC (Aspergillus flavus [5]) [µg/mL] | MIC (Aspergillus niger [6]) [µg/mL] | inhibition zone (IZ) (Aspergillus fumigatus [7]) [mm] | inhibition zone (IZ) [9] [mm] | inhibition zone (IZ) (Staphylococcus aureus [10]) [mm] | MIC (Aspergillus fumigatus [11]) [µg/mL] | MIC (Staphylococcus aureus [12]) [µg/mL] | inhibition zone (IZ) (Klebsiella pneumoniae [15]) [mm] | MIC (Salmonella typhi [16]) [µg/mL] | inhibition zone (IZ) (Candida albicans [17]) [mm] | MIC (Candida albicans [20]) [µg/mL] | MIC (Klebsiella pneumoniae [21]) [µg/mL] | inhibition zone (IZ) (Aspergillus flavus [22]) [mm] | MIC [24] [µg/mL] | inhibition zone (IZ) (Salmonella typhi [25]) [mm] | inhibition zone (IZ) (Pseudomonas aeruginosa [26]) [mm] | MIC (Bacillus subtilis [27]) [µg/mL] | other results |
| --- | --- | --- | --- | --- | --- | --- | --- | --- | --- | --- | --- | --- | --- | --- | --- | --- | --- | --- | --- | --- | --- |
| O=c1cc(OCc2nnc(-c3ccco3)[nH]2)c2ccccc2o1 | 14 | 6.25 (≈ 20.2 µM) | <10 | 12.5 (≈ 40.4 µM) | 6.25 (≈ 20.2 µM) | <10 | <10 | 15 | 25 (≈ 80.8 µM) | 6.25 (≈ 20.2 µM) | 14 | 25 (≈ 80.8 µM) | 13 | 6.25 (≈ 20.2 µM) | 6.25 (≈ 20.2 µM) | 12 | 25 (≈ 80.8 µM) | <10 | 11 | 50 (≈ 162 µM) | MBC (Staphylococcus aureus [4]): 12.5 µg/mL (≈ 40.4 µM); MBC (Klebsiella pneumoniae [8]): 25 µg/mL (≈ 80.8 µM); MIC (Pseudomonas aeruginosa [13]): 12.5 µg/mL (≈ 40.4 µM); MBC (Escherichia coli [14]): 12.5 µg/mL (≈ 40.4 µM); MFC (Candida albicans [18]): 25 µg/mL (≈ 80.8 µM); inhibition zone (IZ) (Escherichia coli [19]): 15 mm; MFC (Aspergillus niger [23]): 12.5 µg/mL (≈ 40.4 µM) |
| O=c1cc(OCc2nnc(-c3cccs3)[nH]2)c2ccccc2o1 | 15 | 6.25 (≈ 19.2 µM) | 11 | 12.5 (≈ 38.4 µM) | 6.25 (≈ 19.2 µM) | 12 | 11 | 14 | 12.5 (≈ 38.4 µM) | 6.25 (≈ 19.2 µM) | 15 | 25 (≈ 76.8 µM) | 15 | 6.25 (≈ 19.2 µM) | 6.25 (≈ 19.2 µM) | 13 | 12.5 (≈ 38.4 µM) | <10 | 12 | 12.5 (≈ 38.4 µM) | MBC (Staphylococcus aureus [4]): 6.25 µg/mL (≈ 19.2 µM); MBC (Klebsiella pneumoniae [8]): 25 µg/mL (≈ 76.8 µM); MIC (Pseudomonas aeruginosa [13]): 12.5 µg/mL (≈ 38.4 µM); MBC (Escherichia coli [14]): 12.5 µg/mL (≈ 38.4 µM); MFC (Candida albicans [18]): 12.5 µg/mL (≈ 38.4 µM); inhibition zone (IZ) (Escherichia coli [19]): 14 mm; MFC (Aspergillus niger [23]): 12.5 µg/mL (≈ 38.4 µM) |
| O=c1cc(OCc2nnc(-c3ccccc3)[nH]2)c2ccccc2o1 | 13 | 12.5 (≈ 39.1 µM) | 11 | 12.5 (≈ 39.1 µM) | 12.5 (≈ 39.1 µM) | 11 | 12 | 11 | 12.5 (≈ 39.1 µM) | 12.5 (≈ 39.1 µM) | 11 | 25 (≈ 78.3 µM) | 14 | 6.25 (≈ 19.6 µM) | 12.5 (≈ 39.1 µM) | 12 | 12.5 (≈ 39.1 µM) | <10 | 11 | 12.5 (≈ 39.1 µM) | MIC (Pseudomonas aeruginosa [13]): 12.5 µg/mL (≈ 39.1 µM); inhibition zone (IZ) (Escherichia coli [19]): 12 mm |
| O=c1cc(OCc2nnc(-c3ccc(Cl)cc3)[nH]2)c2ccccc2o1 | 12 | 6.25 (≈ 17.7 µM) | 11 | 12.5 (≈ 35.3 µM) | 12.5 (≈ 35.3 µM) | <10 | <10 | 12 | 25 (≈ 70.7 µM) | 12.5 (≈ 35.3 µM) | 12 | 12.5 (≈ 35.3 µM) | 14 | 6.25 (≈ 17.7 µM) | 12.5 (≈ 35.3 µM) | 12 | 50 (≈ 141 µM) | 12 | 12 | 12.5 (≈ 35.3 µM) | MIC (Pseudomonas aeruginosa [13]): 12.5 µg/mL (≈ 35.3 µM); inhibition zone (IZ) (Escherichia coli [19]): 13 mm |
| O=c1cc(OCc2nnc(-c3ccc(Br)cc3)[nH]2)c2ccccc2o1 | 11 | 6.25 (≈ 15.7 µM) | 12 | 12.5 (≈ 31.4 µM) | 12.5 (≈ 31.4 µM) | <10 | <10 | 11 | 25 (≈ 62.8 µM) | 12.5 (≈ 31.4 µM) | 13 | 12.5 (≈ 31.4 µM) | 12 | 6.25 (≈ 15.7 µM) | 6.25 (≈ 15.7 µM) | 12 | 50 (≈ 126 µM) | 11 | <10 | 12.5 (≈ 31.4 µM) | MIC (Pseudomonas aeruginosa [13]): 25 µg/mL (≈ 62.8 µM); inhibition zone (IZ) (Escherichia coli [19]): 15 mm |
| O=c1cc(OCc2nnc(-c3ccc(O)cc3)[nH]2)c2ccccc2o1 | 12 | 6.25 (≈ 18.6 µM) | <10 | 25 (≈ 74.6 µM) | 12.5 (≈ 37.3 µM) | 12 | 11 | 11 | 12.5 (≈ 37.3 µM) | 12.5 (≈ 37.3 µM) | 14 | 25 (≈ 74.6 µM) | 15 | 6.25 (≈ 18.6 µM) | 6.25 (≈ 18.6 µM) | <10 | 12.5 (≈ 37.3 µM) | 10 | <10 | 50 (≈ 149 µM) | MIC (Pseudomonas aeruginosa [13]): 50 µg/mL (≈ 149 µM); inhibition zone (IZ) (Escherichia coli [19]): 14 mm |
| Cc1ccc(-c2nnc(COc3cc(=O)oc4ccccc34)[nH]2)cc1 | 13 | 12.5 (≈ 37.5 µM) | 11 | 25 (≈ 75 µM) | 6.25 (≈ 18.7 µM) | 11 | <10 | 11 | 25 (≈ 75 µM) | 12.5 (≈ 37.5 µM) | 13 | 12.5 (≈ 37.5 µM) | 15 | 6.26 (≈ 18.8 µM) | 12.5 (≈ 37.5 µM) | <10 | 50 (≈ 150 µM) | 12 | 11 | 12.5 (≈ 37.5 µM) | MIC (Pseudomonas aeruginosa [13]): 12.5 µg/mL (≈ 37.5 µM); inhibition zone (IZ) (Escherichia coli [19]): 11 mm |
| COc1ccc(-c2nnc(COc3cc(=O)oc4ccccc34)[nH]2)cc1 | 12 | 12.5 (≈ 35.8 µM) | 11 | 25 (≈ 71.6 µM) | 6.25 (≈ 17.9 µM) | <10 | <10 | 13 | 25 (≈ 71.6 µM) | 6.25 (≈ 17.9 µM) | 14 | 25 (≈ 71.6 µM) | 14 | 6.25 (≈ 17.9 µM) | 6.25 (≈ 17.9 µM) | <10 | 25 (≈ 71.6 µM) | <10 | <10 | 12.5 (≈ 35.8 µM) | MIC (Pseudomonas aeruginosa [13]): 50 µg/mL (≈ 143 µM); inhibition zone (IZ) (Escherichia coli [19]): 11 mm |
| O=C(O)c1cn(C2CC2)c2cc(N3CCNCC3)c(F)cc2c1=O [CIPROFLOXACIN] | – | – | 18 | – | – | – | 15 | 17 | – | – | 17 | 6.25 (≈ 18.9 µM) | – | – | 6.25 (≈ 18.9 µM) | – | 6.25 (≈ 18.9 µM) | 19 | 16 | 6.25 (≈ 18.9 µM) | – |
| Clc1ccc(COC(Cn2ccnc2)c2ccc(Cl)cc2Cl)c(Cl)c1 (centres undefined) [MICONAZOLE] | 17 | – | – | 6.25 (≈ 15 µM) | 6.25 (≈ 15 µM) | 14 | – | – | 12.5 (≈ 30 µM) | – | – | – | 15 | 6.25 (≈ 15 µM) | – | 17 | – | – | – | – | – |
